Results on eleven molecules are retold here after ChEMBL document CHEMBL4699529, “Anti-Inflammatory ent-Kaurane Diterpenoids from Isodon serra” (J Nat Prod, 2020).

As a reminder, the IC50 is the point on the concentration scale where inhibition reaches its midpoint. Read a high IC50 as weaker potency.

The nature of series [1]: Inhibition of LPS-induced NO production in mouse BV-2 cells. Format: functional, cell-based.
The next series concerns BV-2. Briefly: Cytotoxicity against mouse BV-2 cells. Format: cell-based.

In turn, `CSC(=N)N` had a 50% inhibitory concentration (IC50) in series [1] of 3.6 µM. The Activity result with BV-2 is “Non-Toxic”.
In series [1], `C=C1[C@@H]2CC[C@H]3[C@]45CCCC(C)(C)[C@H]4[C@H](OC(C)=O)[C@@](O)(OC5)[C@]3(C2)[C@@H]1OC(C)=O` yielded a 50% inhibitory concentration (IC50) of 26.2 µM. Moreover, the Activity result in the series with BV-2 is “Non-Toxic”.
In the same order, the values of `C=C1[C@@H]2CC[C@H]3[C@]4(C)CCCC(C)(C)[C@H]4[C@H](OC(C)=O)C(=O)[C@]3(C2)[C@@H]1OC(C)=O` are 7.3 µM and “Non-Toxic”.
The corresponding values for `CC(=O)O[C@@H]1[C@@]2(CO2)[C@@H]2CC[C@H]3[C@]45CCCC(C)(C)[C@H]4[C@H](OC(C)=O)[C@@](O)(OC5)[C@]13C2` are above 100 µM and “Non-Toxic”.
On to `CC(=O)O[C@H]1[C@]2(CO2)[C@@H]2CC[C@H]3[C@]45CCCC(C)(C)[C@H]4[C@H](OC(C)=O)[C@@](O)(OC5)[C@@]31C2`, for which the IC50 in series [1] amounted to 15.6 µM. Further, in the series with BV-2, the Activity entry is on record as “Non-Toxic”.
In series [1], `CC(=O)O[C@@H]1[C@@]2(CO2)[C@@H]2CC[C@H]3[C@]45CCCC(C)(C)[C@H]4[C@H](OC(C)=O)[C@@](O)(OC5)[C@]13[C@@H]2O` registered a concentration for half-maximal inhibition (IC50) above 100 µM. The Activity entry with BV-2 was “Non-Toxic”.
In the same order, the values of `C=C1[C@@H](OC(C)=O)[C@]23[C@H](O)[C@H]1CC[C@H]2[C@@]12CO[C@]3(O)[C@@H](O)[C@@H]1C(C)(C)CC[C@@H]2OC(C)=O` are above 100 µM and “Non-Toxic”.
As for `CC(=O)O[C@H]1CCC(C)(C)[C@@H](CO)[C@@]12COC(=O)[C@@]13C[C@@H](CC[C@H]12)[C@@H](C)C3=O`, in series [1], the IC50 was above 100 µM. In the series with BV-2, the Activity result is “Non-Toxic”.
In the same order, the values of `CC(=O)O[C@@H]1[C@@](O)(CO)[C@@H]2CC[C@H]3[C@]45CCCC(C)(C)[C@H]4[C@H](OC(C)=O)[C@@](O)(OC5)[C@]13C2` are 40.1 µM and “Non-Toxic”.
Consider `CC(=O)O[C@H]1[C@](O)(CO)[C@@H]2CC[C@H]3[C@]45CCCC(C)(C)[C@H]4[C@H](OC(C)=O)[C@@](O)(OC5)[C@]13C2`, for which the IC50 in series [1] is 44.1 µM. The Activity entry with BV-2 is on record as “Non-Toxic”.
The corresponding values for `C=C1[C@@H]2CC[C@H]3[C@]45CCCC(C)(C)[C@H]4[C@H](O)[C@@](O)(OC5)[C@]3(C2)[C@@H]1O` are above 60 µM and “Non-Toxic”.
